In US20250090603A1, “COMPOSITIONS CONTAINING BACILLAENE PRODUCING BACTERIA OR PREPARATIONS THEREOF” (Evonik Operations GmbH, priority 2019, published 2025):

Experiments:
[1] = test system: S. enterica subsp. enterica enteritidis DSM 14221; assay type: cell-based, Salmonella enterica
[2] = test system: Vibrio parahaemolyticus DSM 10027; assay type: cell-based; settings: concluded from experiments with knock-out mutants

Compound: C/C(=C/C=C/C=C/C(C)C(=O)O)NC(=O)CC(O)\C(C)=C/C=C\C=C(C)\C=C\C=C/C=C/CNC(=O)C(O)CC(C)C (centres unmarked) [bacillaene]
- inhibition of growth of Salmonella enterica (in words) [1]: effectively inhibit the growth
- inhibition of growth of Vibrio parahaemolyticus (in words) [2]: effectively inhibit the growth
